ChEMBL document CHEMBL1201862, “PubChem BioAssay data set” (2004)
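Method: 48-hour compound exposure of cells in 96-well plates, five concentrations, linear interpolation of endpoints. GI50 = concentration required for 50% inhibition of growth.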 Calls of active or inactive are those of the source. Rule as the data show it: active = GI50 up to about 1.1 µM and inactive = higher.

What was measured:
Experiment in all cases: NCI anticancer screen, dose series, 48 h
SNB-75 = system: SNB-75
SK-MEL-5 = system: SK-MEL-5
EKVX = system: EKVX
SK-MEL-28 = system: SK-MEL-28
HOP-92 = system: HOP-92
SW-620 = system: SW-620
LOX IMVI = system: LOX IMVI
UO-31 = system: UO-31
MDA-N = system: MDA-N
OVCAR-3 = system: OVCAR-3
ACHN = system: ACHN
MOLT-4 = system: MOLT-4
PC-3 = system: PC-3
HCT-116 = system: HCT-116
NCI-H522 = system: NCI-H522
786-0 = system: 786-0
HOP-62 = system: HOP-62
CAKI-1 = system: CAKI-1
A549 = system: A549
COLO 205 = system: COLO 205
CCRF-CEM = system: CCRF-CEM
HT-29 = system: HT-29
OVCAR-5 = system: OVCAR-5
SN12C = system: SN12C
HCT-15 = system: HCT-15
SF-295 = system: SF-295
NCI/ADR-RES = system: NCI/ADR-RES
SK-OV-3 = system: SK-OV-3
RPMI-8226 = system: RPMI-8226
TK-10 = system: TK-10
NCI-H226 = system: NCI-H226
MDA-MB-435 = system: MDA-MB-435
DU-145 = system: DU-145
UACC-62 = system: UACC-62
IGROV-1 = system: IGROV-1
Hs-578T = system: Hs-578T
SF-268 = system: SF-268
Malme-3M = system: Malme-3M
MDA-MB-231 = system: MDA-MB-231
A498 = system: A498
MCF7 = system: MCF7
BT-549 = system: BT-549
K562 = system: K562
SR = system: SR
T47D = system: T47D
HL-60 = system: HL-60
OVCAR-4 = system: OVCAR-4
OVCAR-8 = system: OVCAR-8
HCC 2998 = system: HCC 2998
UACC-257 = system: UACC-257
KM12 = system: KM12
SF-539 = system: SF-539
NCI-H23 = system: NCI-H23
RXF 393 = system: RXF 393
U-251 = system: U-251
NCI-H460 = system: NCI-H460

Q: How did the GI50 (SNB-75) turn out when `COC(=O)c1c2c(cc3c1CC1(Cc4ccccc4C1)C3)CCC2` was run?
A: 26.2 µM (inactive)

Q: And the GI50 (SK-MEL-5)?
A: 13.5 µM (inactive)

Q: And the GI50 (EKVX)?
A: 25.6 µM (inactive)

Q: What about the GI50 (SK-MEL-28) of the same compound?
A: 24.2 µM (inactive)

Q: What about the GI50 (HOP-92) of the same compound?
A: 36.9 µM (inactive)

Q: And the GI50 (SW-620)?
A: 14.2 µM (inactive)

Q: And the GI50 (LOX IMVI)?
A: 15.9 µM (inactive)

Q: And the GI50 (UO-31)?
A: 13 µM (inactive)

Q: What about the GI50 (MDA-N) of the same compound?
A: 6.27 µM (inactive)

Q: What about the GI50 (OVCAR-3) of the same compound?
A: 18.9 µM (inactive)

Q: And the GI50 (ACHN)?
A: 23.8 µM (inactive)

Q: What about the GI50 (MOLT-4) of the same compound?
A: 17.1 µM (inactive)

Q: And the GI50 (PC-3)?
A: 13.8 µM (inactive)

Q: And the GI50 (HCT-116)?
A: 21.7 µM (inactive)

Q: What about the GI50 (NCI-H522) of the same compound?
A: 14 µM (inactive)

Q: And the GI50 (786-0)?
A: 27.9 µM (inactive)

Q: And the GI50 (HOP-62)?
A: 28.2 µM (inactive)

Q: What about the GI50 (CAKI-1) of the same compound?
A: 19.8 µM (inactive)

Q: And the GI50 (A549)?
A: 28.7 µM (inactive)

Q: What about the GI50 (COLO 205) of the same compound?
A: 16.6 µM (inactive)

Q: What about the GI50 (CCRF-CEM) of the same compound?
A: 17.2 µM (inactive)

Q: What about the GI50 (HT-29) of the same compound?
A: 13.8 µM (inactive)

Q: What about the GI50 (OVCAR-5) of the same compound?
A: 25.2 µM (inactive)

Q: What about the GI50 (SN12C) of the same compound?
A: 16.9 µM (inactive)

Q: What about the GI50 (HCT-15) of the same compound?
A: 23 µM

Q: And the GI50 (SF-295)?
A: 24.5 µM (inactive)

Q: What about the GI50 (NCI/ADR-RES) of the same compound?
A: 22.2 µM (inactive)

Q: What about the GI50 (SK-OV-3) of the same compound?
A: 31.4 µM (inactive)

Q: What about the GI50 (RPMI-8226) of the same compound?
A: 17.9 µM (inactive)

Q: What about the GI50 (TK-10) of the same compound?
A: 61.8 µM (inactive)

Q: What about the GI50 (NCI-H226) of the same compound?
A: 31.7 µM (inactive)

Q: And the GI50 (MDA-MB-435)?
A: 8.91 µM (inactive)

Q: What about the GI50 (DU-145) of the same compound?
A: 47.4 µM (inactive)

Q: And the GI50 (UACC-62)?
A: 20.9 µM (inactive)

Q: What about the GI50 (IGROV-1) of the same compound?
A: 22.5 µM (inactive)

Q: What about the GI50 (Hs-578T) of the same compound?
A: 22.9 µM (inactive)

Q: And the GI50 (SF-268)?
A: 36.6 µM (inactive)

Q: And the GI50 (Malme-3M)?
A: 20.2 µM (inactive)

Q: What about the GI50 (MDA-MB-231) of the same compound?
A: 14.8 µM (inactive)

Q: And the GI50 (A498)?
A: 25.9 µM (inactive)

Q: What about the GI50 (MCF7) of the same compound?
A: 6.38 µM (inactive)

Q: And the GI50 (BT-549)?
A: 20.9 µM (inactive)

Q: What about the GI50 (K562) of the same compound?
A: 4.32 µM (inactive)

Q: What about the GI50 (SR) of the same compound?
A: 16.5 µM (inactive)

Q: What about the GI50 (T47D) of the same compound?
A: 15.8 µM (inactive)

Q: And the GI50 (HL-60)?
A: 17.3 µM (inactive)

Q: And the GI50 (OVCAR-4)?
A: 37.8 µM (inactive)

Q: What about the GI50 (OVCAR-8) of the same compound?
A: 35.2 µM (inactive)

Q: And the GI50 (HCC 2998)?
A: 33.1 µM (inactive)

Q: What about the GI50 (UACC-257) of the same compound?
A: 17.6 µM (inactive)

Q: And the GI50 (KM12)?
A: 13 µM (inactive)

Q: What about the GI50 (SF-539) of the same compound?
A: 39.5 µM (inactive)

Q: And the GI50 (NCI-H23)?
A: 31.3 µM (inactive)

Q: What about the GI50 (RXF 393) of the same compound?
A: 16.9 µM (inactive)

Q: And the GI50 (U-251)?
A: 20.9 µM (inactive)

Q: And the GI50 (NCI-H460)?
A: 30.5 µM (inactive)
